Results taken from patent publication US6706725B1, “Vitamin D analogues” (Galderma Research & Development, S.N.C., priority 1999, dated 2004).

target: T1, human VDR receptor (Homo sapiens, UniProt P11473); experiment: VDR agonist activity by co-transfection in HeLa cells (human VDR expression vector + p240Hase-CAT reporter, CAT ELISA); assay type: cell-based; conditions: HeLa cell line co-transfected with human VDR and rat 24-hydroxylase promoter-CAT reporter; treatment for 18 hours; read-out: AC 50 (dose required to achieve 50% of the maximum activity of the product)
T1 construct: expressed in transfected cells; host or cells: HeLa
T1 sequence (P11473 1-427): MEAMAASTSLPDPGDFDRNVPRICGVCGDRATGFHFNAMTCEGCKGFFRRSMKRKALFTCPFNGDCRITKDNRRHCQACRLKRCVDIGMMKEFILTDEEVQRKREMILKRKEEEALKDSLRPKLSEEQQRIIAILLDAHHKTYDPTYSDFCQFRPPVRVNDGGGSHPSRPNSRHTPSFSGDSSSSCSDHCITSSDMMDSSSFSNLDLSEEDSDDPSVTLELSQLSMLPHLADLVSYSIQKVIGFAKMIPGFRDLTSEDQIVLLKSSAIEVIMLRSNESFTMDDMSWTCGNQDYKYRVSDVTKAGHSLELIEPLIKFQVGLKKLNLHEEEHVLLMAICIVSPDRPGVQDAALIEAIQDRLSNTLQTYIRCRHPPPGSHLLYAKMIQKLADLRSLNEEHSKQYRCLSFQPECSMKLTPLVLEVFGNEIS
Description: By way of example, the VDR agonist activity can be tested on the HeLa cell line by co-transfection with an expression vector for the human VDR receptor and the reporter plasmid p240Hase-CAT which contains the region −1399 to +76 of rat 24-hydroxylase promoter, cloned upstream of the frame encoding the chloramphenicol-acetyl-transferase (CAT) gene. 18 hours after co-transfection, the test product is added to the medium. After treatment for 18 hours, assay of the CAT activity in the cell lysates is carried out by an ELISA test. The results are expressed as percentages of the effect normally observed with 10^−7M calcitriol.
The agonist activity can also be characterized in the co-transfection system, by determining the dose required to reach 50% of the maximum activity of the product (AC50).
The VDR agonist activity was tested on the HeLa cell line, by co-transfection of an expression vector of the human VDR receptor and of the reporter plasmid p240Hase-CAT which contains the region −1399 to +76 of the rat 24-hydroxylase promoter, cloned upstream of the coding frame of the chloramphenicol-acetyl-transferase (CAT) gene. 18 hours after co-transfection, the test product is added to the medium. After treatment for 18 hours, the CAT activity of the cell lysates is assayed by an ELISA test. The results are expressed as a percentage of the effect normally observed with 10^−7 M of calcitriol.
The agonist activity was characterized in this co-transfection system by determining the dose required to achieve 50% of the maximum activity of the product (AC50).

AC50	Compound
0.267 µM	CCC(O)(CC)CC/C=C(\C)c1cc(COc2ccc(CO)c(CO)c2)cs1 [Example 2, (E)-7-[4-(3,4-bis-Hydroxymethyl-phenoxymethyl)-2-thienyl]-3-ethyloct-6-en-3-ol]
0.029 µM	CC/C(=C\CCC(O)(CC)CC)c1ccc(CCc2ccc(CO)c(CO)c2)s1 [Example 8, (E)-7-{5-[2-(3,4-bis-Hydroxymethyl-phenyl)ethyl]-2-thienyl}-3-ethylnon-6-en-3-ol]
0.061 µM	CC/C(=C\CCC(O)(CC)CC)c1ccc(COc2ccc(CO)c(CO)c2)s1 [Example 6, (E)-7-[5-(3,4-bis-Hydroxymethyl-phenoxymethyl)-2-thienyl]-3-ethylnon-6-en-3-ol]
0.023 µM	CC/C(=C\CCC(O)(CC)CC)c1cc(CCc2ccc(CO)c(CO)c2)cs1 [Example 10, (E)-7-[4-[2-(3,4-bis-Hydroxymethyl-phenyl)ethyl]-2-thienyl)-3-ethylnon-6-en-3-ol]
0.655 µM	CC/C(=C\CCC(O)(CC)CC)c1csc(COc2ccc(CO)c(CO)c2)c1 [Example 12, (E)-7-[5-(3,4-bis-Hydroxymethyl-phenoxymethyl)-3-thienyl]-3-ethylnon-6-en-3-ol]
0.017 µM	CC/C(=C\C=C\C(O)(CC)CC)c1ccc(COc2ccc(CO)c(CO)c2)s1 [Example 7, (4E,6E)-7-[5-(3,4-bis-Hydroxymethyl-phenoxymethyl)-2-thienyl]-3-ethylnona-4,6-dien-3-ol]
0.078 µM	CC/C(=C\C=C\C(O)(C(F)(F)F)C(F)(F)F)c1ccc(COc2ccc(CO)c(CO)c2)s1 [Example 13, (3E,5E)-6-[5-(3,4-bis-Hydroxymethyl-phenoxymethyl)-2-thienyl]-1,1,1-trifluoro-2-trifluoromethylocta-3,5-dien-2-ol]
0.294 µM	CC/C(=C\CCC(O)(CC)CC)c1cccc(COc2ccc(CO)c(CO)c2)n1 [Example 4, (E)-7-[6-(3,4-bis-Hydroxymethyl-phenoxymethyl)-2-pyridyl]-3-ethylnon-6-en-3-ol]
0.192 µM	CCC(O)(CC)CC/C=C(\C)c1ccc(COc2ccc(CO)c(CO)c2)s1 [Example 1, (E)-7-[5-(3,4-bis-Hydroxymethyl-phenoxymethyl)-2-thienyl]-3-ethyloct-6-en-3-ol]
